Source: patent US20240294495A1, “COMPOUNDS THAT MEDIATE PROTEIN DEGRADATION AND METHODS OF USE THEREOF” (Monte Rosa Therapeutics, Inc., priority 2021, published 2024)

Tests used:
[1] = molecular target: T1, GSPT1 (Homo sapiens, UniProt P15170+Q96SW2); assay: Immunofluorescence assay for GSPT1 degradation in CAL-51 cells; type: cell-based; details: 6 h treatment, read-out: IF Class (GSPT1 degradation, DC50)
T1 construct: CAL-51 cells were purchased from DSMZ (cat. Number ACC302); endogenous in cells; host or cells: CAL-51 (DSMZ ACC302)
Method: The representative compounds were tested in an immunofluorescence assay for their activity to degrade GSPT1. CAL-51 cells were purchased from DSMZ (cat. Number ACC302), sub-cultured in 90% Dulbecco's MEM (4.5 g/L glucose, Gibco 11965)+10% heat inactivated FBS (BioConcept, 2-01F136I) and incubated at 37° C., 5% CO2. For the assay imaging microtiter plate Cell Carrier 96 Ultra (Perkin Elmer 6055302) were pre-coated with Fibronectin (Sigma F085, 30 μl at 0.2 μg/mL) in PBS (100 μL, Gibco 14190) for 45 min at room temperature, rinsed with PBS and CAL-51 cells (30K cells/well) were plated and let to adhere overnight. Cells were treated with compounds typically using a serial dilution ranging from 30 μM to 0.1 nM for 6 h. Compounds were stored at 10 mM DMSO stocks. Vehicle (DMSO), positive (CC-885, 10 μM) and rescue controls (positive control plus 0.2 μM bortezomib) were also included at this stage. Cells were subsequently rinsed with PBS and fixed in 10% Formalin solution (50 μl, Sigma HT5011)) for 20 min at room temperature. Following three consecutive PBS washes (100 μL), cells were permeabilized in 0.1% Triton X-100 in PBS (Sigma 93443, 50 μl) for 15 min at room temperature. Following three further PBS washes, 50 μl blocking buffer (1% BSA, Sigma A4503, in PBS) was added for 45 min for signal-to noise reduction. Primary antibody (human GSPT1, Sigma HPA052488) was diluted in blocking buffer (dil.1/300, 35 μL/well) and incubated with the cells overnight at 4° C. After three PBS washes, Alexa-fluor 488 coupled secondary antibodies (Invitrogen, A32731, dil.1/1000), Alexa-fluor 647-Phalloidin (Invitrogen, A22287, dil.1/200) and DAPI (Thermo, #62248, dil.1/1000) were diluted in blocking buffer and incubated with the samples for 2 h at room temperature. After three final PBS washes, samples were conserved in 100 μL PBS in the dark, until measurement. Image acquisition was performed on the Operetta High-Content Imager (Perkin-Elmer). Fluorescence intensity of […] (GSPT1), Alexa-Fluor 647 (Actin) and DAPI (Nucleus) were measured. For the determination of GSPT1 DC50 values, a custom algorithm implemented in the PerkinElmer image analysis software Harmony-Acapella® was developed. After user-defined setting of adjustment parameters, the analysis was run identically without human intervention for all image fields. DAPI staining of the nuclei was used to determine the location of cells using standard nuclei detection modules. Segmentation artifacts were removed by threshold-based filters for area, roundness and intensity. The outline of the cells was determined analogously from the sum of the normalized, smoothed DAPI and Actin channel, starting from each nucleus. The Alexa-Fluor 488 (GSPT1) signal intensity in each cell was finally measured, in order to obtain a Mean intensity per cell. GSPT1 degradation (DC50) was calculated after normalization to controls and data import in CDD vault Database, using non-linear regression.
(§1) In Table 2, each compound is assigned a class (HTRF class) indicating the ability for Cereblon binding by means of their HTRF IC50 values according to Example 3: A, B or C. According to the code, A represents an IC50 value of <100 nM, B represents an IC50 value>100 nM and <1000 nM, C represents an IC50 value>1000 nM. IF Class assigns each compound a code indicating the ability for GSPT1 degradation: A, B or C. According to the code, A represents a DC50 value of <30 nM, B represents a DC50 value>30 nM and <300 nM and C represents a DC50 value of >300 nM.

[2] = molecular target: CRBN-DDB1 (Homo sapiens, UniProt Q96SW2); assay: Compound binding to CRBN by HTRF assay; details: CRBN-DDB1 2.5 nM, Cy5-Thalidomide 100 nM probe, 30 min incubation; read-out: HTRF Class (Cereblon binding, HTRF IC50)
Method: Compound activity was monitored in a Homogenous Time-Resolved Fluorescence (HTRF) assay using 1-[5-({2-[2-(2-{[2-(2,6-dioxopiperidin-3-yl)-1,3-dioxo-2,3-dihydro-1H-isoindol-4-yl]oxy}acetamido)ethoxy]ethyl}carbamoyl)pentyl]-3,3-dimethyl-2-[(1E,3E)-5-[(2E)-1,3,3-trimethyl-5-sulfo-2,3-dihydro-1H-indol-2-ylidene]penta-1,3-dien-1-yl]-3H-indol-1-ium-5-sulfonate as a fluorescent probe. Biochemical assays were conducted in Greiner white 384 well HiBase plates (Cat. No 784075-25) in 10 μL total volume. A one pot detection solution of CRBN-DDB1 (2.5 nM), Anti-His Terbium Cryptate Gold (1×, PerkinElmer Cat. #: 61HI2TLB), and Cy5-Thalidomide (100 nM, Tenova Cat.: T52461) was prepared in 20 mM HEPES, 20 mM NaCl, 0.2 mM TCEP, 0.2 mM EDTA, and 0.005% Tween20 was dispensed to each assay plate. Compounds were stored in dry, ambient temperatures at 10 mM. A 10-point, 1:3 dilution series was prepared from 10 mM stock concentrations in Echo-compatible LDV plates. 10 nL of each compound dilution series was dispensed into assays wells using an Echo 650 (Labcyte inc. USA). 10 nL of 10 mM Lenalidomide was transferred into the active-control wells for the assay and 10 nL of DMSO was transferred into the neutral-control wells. The assay was then allowed to incubate for 30 min at ambient temperature after transferring compound. Plate measurements were taken on a Pherastar FSX (BMG Labtech, Germany) using the HTRF Red filter (Ex. 337 nm, em1: 620 nm, em2: 665 nm) (Flashes: 50, Integration time: 60-400 us, Z-height: 10 mm, Ratio-multiplier: 10,000). The HTRF signal was then subsequently normalized to the neutral and active controls. Analysis and IC50 values were derived using KNIME analytics (KNIME Zurich) transformation and fitting within Collaborative Drug Discovery (Collaborative Drug Discovery USA). Ki was derived from the geometric mean of the IC50 values using the Cheng-Prustoff transformation.
as §1

T1 sequence (P15170 whole entry): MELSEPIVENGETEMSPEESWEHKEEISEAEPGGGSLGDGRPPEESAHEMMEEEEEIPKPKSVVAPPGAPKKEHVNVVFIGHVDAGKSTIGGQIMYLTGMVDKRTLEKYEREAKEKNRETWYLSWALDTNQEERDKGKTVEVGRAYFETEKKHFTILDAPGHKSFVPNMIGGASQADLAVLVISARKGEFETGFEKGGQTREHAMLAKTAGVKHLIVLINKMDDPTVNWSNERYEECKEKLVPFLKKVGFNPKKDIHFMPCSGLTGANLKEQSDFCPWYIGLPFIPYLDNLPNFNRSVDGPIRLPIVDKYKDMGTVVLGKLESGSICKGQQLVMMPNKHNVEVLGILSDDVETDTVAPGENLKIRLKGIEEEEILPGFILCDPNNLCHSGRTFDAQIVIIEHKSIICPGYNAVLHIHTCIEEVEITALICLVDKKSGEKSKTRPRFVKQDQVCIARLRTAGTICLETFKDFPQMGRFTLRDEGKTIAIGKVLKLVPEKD
T1 sequence (Q96SW2 whole entry): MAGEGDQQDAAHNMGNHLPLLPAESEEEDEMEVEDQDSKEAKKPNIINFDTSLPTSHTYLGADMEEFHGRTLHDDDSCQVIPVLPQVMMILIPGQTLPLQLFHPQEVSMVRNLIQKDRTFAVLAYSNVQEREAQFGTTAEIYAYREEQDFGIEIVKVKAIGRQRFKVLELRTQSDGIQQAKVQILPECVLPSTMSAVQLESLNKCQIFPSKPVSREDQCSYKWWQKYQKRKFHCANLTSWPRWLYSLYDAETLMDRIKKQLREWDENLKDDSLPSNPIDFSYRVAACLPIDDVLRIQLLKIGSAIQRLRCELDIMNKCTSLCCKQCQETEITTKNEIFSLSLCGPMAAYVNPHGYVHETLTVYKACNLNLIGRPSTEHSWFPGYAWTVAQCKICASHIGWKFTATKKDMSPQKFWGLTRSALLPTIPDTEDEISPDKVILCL
T1 sequence (Q16531 2-1140 partner limits assumed): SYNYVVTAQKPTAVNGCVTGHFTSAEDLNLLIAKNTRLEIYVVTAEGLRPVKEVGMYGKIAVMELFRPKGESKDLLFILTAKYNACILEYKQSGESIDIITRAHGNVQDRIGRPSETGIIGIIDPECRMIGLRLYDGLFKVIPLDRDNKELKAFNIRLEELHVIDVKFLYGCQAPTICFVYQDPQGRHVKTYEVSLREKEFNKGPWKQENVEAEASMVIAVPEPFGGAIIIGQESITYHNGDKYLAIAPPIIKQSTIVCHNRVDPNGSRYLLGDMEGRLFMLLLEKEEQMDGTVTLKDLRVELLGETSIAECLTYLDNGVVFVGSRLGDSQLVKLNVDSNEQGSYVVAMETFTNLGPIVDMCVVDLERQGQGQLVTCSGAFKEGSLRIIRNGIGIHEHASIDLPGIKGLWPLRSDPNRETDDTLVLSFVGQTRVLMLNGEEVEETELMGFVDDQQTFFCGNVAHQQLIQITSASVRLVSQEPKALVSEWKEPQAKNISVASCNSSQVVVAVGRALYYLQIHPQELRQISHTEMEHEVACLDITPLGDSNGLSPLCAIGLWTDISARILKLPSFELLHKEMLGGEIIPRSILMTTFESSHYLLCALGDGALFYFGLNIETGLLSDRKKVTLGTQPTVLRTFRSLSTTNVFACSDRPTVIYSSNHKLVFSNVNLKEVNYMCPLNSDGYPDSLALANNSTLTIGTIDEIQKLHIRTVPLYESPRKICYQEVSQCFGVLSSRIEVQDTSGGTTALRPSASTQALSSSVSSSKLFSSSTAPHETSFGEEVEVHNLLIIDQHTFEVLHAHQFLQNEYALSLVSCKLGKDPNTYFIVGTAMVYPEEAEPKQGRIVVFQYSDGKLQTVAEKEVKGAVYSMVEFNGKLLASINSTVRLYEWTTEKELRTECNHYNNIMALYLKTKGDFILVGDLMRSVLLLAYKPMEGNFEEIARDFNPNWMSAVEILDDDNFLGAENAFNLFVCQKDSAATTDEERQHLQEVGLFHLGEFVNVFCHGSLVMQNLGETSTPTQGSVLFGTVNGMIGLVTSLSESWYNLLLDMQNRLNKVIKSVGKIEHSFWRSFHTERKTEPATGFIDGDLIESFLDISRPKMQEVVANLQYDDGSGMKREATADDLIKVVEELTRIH
Chain of CRBN-DDB1 (Q96SW2 whole entry): as the sequence (Q96SW2 whole entry) above
Chain of CRBN-DDB1 (Q16531 whole entry partner): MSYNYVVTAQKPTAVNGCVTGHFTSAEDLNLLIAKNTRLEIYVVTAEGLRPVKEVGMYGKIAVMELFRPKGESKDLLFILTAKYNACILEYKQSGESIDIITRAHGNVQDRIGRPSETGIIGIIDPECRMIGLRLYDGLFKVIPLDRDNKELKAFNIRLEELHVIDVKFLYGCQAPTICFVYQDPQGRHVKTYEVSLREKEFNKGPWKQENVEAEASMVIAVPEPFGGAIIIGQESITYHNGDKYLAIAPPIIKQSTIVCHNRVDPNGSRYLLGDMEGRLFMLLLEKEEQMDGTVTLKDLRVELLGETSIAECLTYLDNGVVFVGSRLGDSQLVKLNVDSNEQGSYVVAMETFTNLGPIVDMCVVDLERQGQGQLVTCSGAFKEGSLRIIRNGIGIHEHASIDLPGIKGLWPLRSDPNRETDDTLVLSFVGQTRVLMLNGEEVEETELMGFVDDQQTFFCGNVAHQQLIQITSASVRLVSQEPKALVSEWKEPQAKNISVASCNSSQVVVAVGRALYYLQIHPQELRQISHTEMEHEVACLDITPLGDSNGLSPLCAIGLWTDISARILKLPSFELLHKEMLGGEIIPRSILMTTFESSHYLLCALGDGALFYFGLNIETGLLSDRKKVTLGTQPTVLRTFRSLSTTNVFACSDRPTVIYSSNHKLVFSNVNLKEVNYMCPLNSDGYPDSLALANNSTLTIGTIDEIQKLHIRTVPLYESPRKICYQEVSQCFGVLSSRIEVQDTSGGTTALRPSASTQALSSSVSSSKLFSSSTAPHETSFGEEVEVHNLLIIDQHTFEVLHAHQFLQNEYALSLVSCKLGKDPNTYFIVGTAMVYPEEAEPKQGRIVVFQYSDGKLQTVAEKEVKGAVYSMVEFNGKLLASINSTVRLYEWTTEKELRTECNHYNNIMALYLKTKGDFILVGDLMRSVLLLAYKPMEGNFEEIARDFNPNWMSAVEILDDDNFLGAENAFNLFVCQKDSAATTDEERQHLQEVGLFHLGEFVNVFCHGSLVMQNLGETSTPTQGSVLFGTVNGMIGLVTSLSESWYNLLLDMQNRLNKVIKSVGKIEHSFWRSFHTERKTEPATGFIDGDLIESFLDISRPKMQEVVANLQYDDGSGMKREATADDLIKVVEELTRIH

Compound	DC50 [1] [µM]	IC50 [2] [µM]
O=C1CCC(c2c(F)cc(N3CC(NC(=O)Cc4ccc(F)c(F)c4)C3)cc2F)C(=O)N1 (stereo not drawn) [Compound 17, 2-(3,4-difluorophenyl)-N-(1-(4-(2,6-dioxopiperidin-3-yl)-3,5-difluorophenyl)azetidin-3-yl)acetamide]	> 0.3	0.1 to 1
C[C@@H]1CCCN1c1ccc(CC(=O)NC2CN(c3cc(F)c(C4CCC(=O)NC4=O)c(F)c3)C2)cn1 (stereo partly drawn) [Compound 19, N-(1-(4-(2,6-dioxopiperidin-3-yl)-3,5-difluorophenyl)azetidin-3-yl)-2-(6-((R)-2-methylpyrrolidin-1-yl)pyridin-3-yl)acetamide]	> 0.3	< 0.1
O=C1CCC(c2c(F)cc(N3CC(NC(=O)Cc4ccc(C5CCC5)cc4)C3)cc2F)C(=O)N1 (stereo not drawn) [Compound 20, 2-(4-cyclobutylphenyl)-N-(1-(4-(2,6-dioxopiperidin-3-yl)-3,5-difluorophenyl)azetidin-3-yl)acetamide]	> 0.3	0.1 to 1
O=C1CCC(c2c(F)cc(N3CC(NC(=O)C45CC(c6ccccc6)(C4)C5)C3)cc2F)C(=O)N1 (stereo not drawn) [Compound 21, N-(1-(4-(2,6-dioxopiperidin-3-yl)-3,5-difluorophenyl)azetidin-3-yl)-3-phenylbicyclo [1.1.1]pentane-1-carboxamide]	> 0.3	0.1 to 1
Cc1cc(CC(=O)NC2CN(c3cc(F)c(C4CCC(=O)NC4=O)c(F)c3)C2)ncc1Cl (stereo not drawn) [Compound 22, 2-(5-chloro-4-methylpyridin-2-yl)-N-(1-(4-(2,6-dioxopiperidin-3-yl)-3,5-difluorophenyl)azetidin-3-yl)acetamide]	> 0.3	0.1 to 1
CC(C)(C)C12CC(C(=O)NC3CN(c4cc(F)c(C5CCC(=O)NC5=O)c(F)c4)C3)(C1)C2 (stereo not drawn) [Compound 23, 3-(tert-butyl)-N-(1-(4-(2,6-dioxopiperidin-3-yl)-3,5-difluorophenyl)azetidin-3-yl) bicyclo[1.1.1]pentane-1-carboxamide]	> 0.3	0.1 to 1

Second part, the compound after the results:

DC50 [1] [µM]	IC50 [2] [µM]	Compound
0.03 to 0.3	< 0.1	O=C1CCC(c2c(F)cc(N3CC(NC(=O)Cc4cc(Cl)ccc4F)C3)cc2F)C(=O)N1 (stereo not drawn) [Compound 12, 2-(5-chloro-2-fluorophenyl)-N-(1-(4-(2,6-dioxopiperidin-3-yl)-3,5-difluorophenyl)azetidin-3-yl)acetamide]
> 0.3	0.1 to 1	O=C1CCC(c2c(F)cc(N3CC(NC(=O)Cc4ccc(F)c(Cl)c4)C3)cc2F)C(=O)N1 (stereo not drawn) [Compound 13, 2-(3-chloro-4-fluorophenyl)-N-(1-(4-(2,6-dioxopiperidin-3-yl)-3,5-difluorophenyl)azetidin-3-yl)acetamide]
> 0.3	0.1 to 1	O=C1CCC(c2c(F)cc(N3CC(NC(=O)Cc4ccc(Cl)c(F)c4)C3)cc2F)C(=O)N1 (stereo not drawn) [Compound 14, 2-(4-chloro-3-fluorophenyl)-N-(1-(4-(2,6-dioxopiperidin-3-yl)-3,5-difluorophenyl)azetidin-3-yl)acetamide]
> 0.3	0.1 to 1	O=C1CCC(c2c(F)cc(N3CC(NC(=O)Cc4ncc(Cl)cc4F)C3)cc2F)C(=O)N1 (stereo not drawn) [Compound 15, 2-(5-chloro-3-fluoropyridin-2-yl)-N-(1-(4-(2,6-dioxopiperidin-3-yl)-3,5-difluorophenyl)azetidin-3-yl)acetamide]
0.03 to 0.3	0.1 to 1	O=C1CCC(c2c(F)cc(N3CC(NC(=O)Cc4c(F)cc(Cl)cc4F)C3)cc2F)C(=O)N1 (stereo not drawn) [Compound 16, 2-(4-chloro-2,6-difluorophenyl)-N-(1-(4-(2,6-dioxopiperidin-3-yl)-3,5-difluorophenyl)azetidin-3-yl) acetamide]
< 0.03	0.1 to 1	Cc1c(Cl)cc(CC(=O)NC2CN(c3cc(F)c(C4CCC(=O)NC4=O)c(F)c3)C2)cc1CN1CCOCC1 (stereo not drawn) [Compound 18, 2-(3-chloro-4-methyl-5-(morpholinomethyl)phenyl)-N-(1-(4-(2,6-dioxopiperidin-3-yl)-3,5-difluorophenyl)azetidin-3-yl)acetamide]
